Measured values: article PMC9776381, “A Large-Scale High-Throughput Screen for Modulators of SERCA Activity” (Biomolecules, 2022)

What was measured:
[1] = molecular target: T1, SERCA2a (cardiac SR vesicles) (Sus scrofa, UniProt P11607); experiment: NADH-coupled Ca-ATPase activity assay, cardiac SR (CRC at pCa 5.4); assay type: biochemical, porcine; conditions: pCa 5.4, mean ± SD, n = 3; for Cardiac SR ATPase Activity Percent Increase: maximal effect of CRC
T1 construct: Cardiac SR vesicles were isolated from fresh porcine left ventricular tissue; from tissue; host or cells: porcine left ventricular tissue, cardiac SR vesicles
T1 sequence (P11607 1-997 isoform P11607-2): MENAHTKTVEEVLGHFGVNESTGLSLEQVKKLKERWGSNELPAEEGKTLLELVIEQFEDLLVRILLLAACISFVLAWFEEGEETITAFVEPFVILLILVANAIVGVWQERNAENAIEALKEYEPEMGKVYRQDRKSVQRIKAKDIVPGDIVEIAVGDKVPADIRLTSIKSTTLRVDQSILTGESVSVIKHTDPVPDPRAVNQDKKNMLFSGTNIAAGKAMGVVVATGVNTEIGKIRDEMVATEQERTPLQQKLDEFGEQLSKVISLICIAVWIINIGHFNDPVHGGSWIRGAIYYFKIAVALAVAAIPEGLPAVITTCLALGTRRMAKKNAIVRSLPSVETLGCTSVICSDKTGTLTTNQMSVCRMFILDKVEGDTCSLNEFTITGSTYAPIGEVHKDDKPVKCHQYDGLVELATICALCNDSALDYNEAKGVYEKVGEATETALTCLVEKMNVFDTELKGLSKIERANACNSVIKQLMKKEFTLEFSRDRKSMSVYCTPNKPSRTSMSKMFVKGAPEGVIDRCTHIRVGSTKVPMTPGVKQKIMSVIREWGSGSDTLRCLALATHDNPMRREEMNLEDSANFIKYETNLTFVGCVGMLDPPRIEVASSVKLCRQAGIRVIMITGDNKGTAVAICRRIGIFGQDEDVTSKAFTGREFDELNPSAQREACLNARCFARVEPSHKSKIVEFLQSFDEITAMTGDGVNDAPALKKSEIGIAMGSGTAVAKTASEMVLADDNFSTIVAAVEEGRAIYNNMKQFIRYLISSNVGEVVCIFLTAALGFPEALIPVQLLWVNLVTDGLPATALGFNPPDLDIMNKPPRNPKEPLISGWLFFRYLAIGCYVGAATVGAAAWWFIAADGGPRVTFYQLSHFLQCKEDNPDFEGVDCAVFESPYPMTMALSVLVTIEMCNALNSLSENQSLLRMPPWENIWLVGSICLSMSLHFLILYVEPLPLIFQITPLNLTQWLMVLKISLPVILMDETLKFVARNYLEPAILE
Protocol: (§1) For skeletal SR, rabbit muscles were freshly harvested from the back and hind leg of New Zealand White rabbits and purified using a sucrose gradient. The resulting light skeletal SR contains 80% SERCA, as a proportion of total protein content. Cardiac SR vesicles were isolated from fresh porcine left ventricular tissue.
(§2) Functional assays were performed using rabbit light skeletal sarcoplasmic (SR) vesicles. For high-throughput NADH-coupled screening, assay mix containing a final concentration of 50 mM MOPS (pH 7.0), 100 mM KCl, 1 mM EGTA, 0.2 mM NADH, 1 mM phosphoenol pyruvate, 10 IU/mL of pyruvate kinase, 10 IU/mL of lactate dehydrogenase, 1 µM of the calcium ionophore A23187, 4 µg/mL skeletal SR, and added CaCl2 to obtain pCa 5.4 was dispensed into 384-well DIVERSet assay plates containing 50 nL of compound or DMSO using a FlexDrop Precision liquid dispenser (Perkin Elmer, Waltham, Massachusetts). Plates were sealed, covered from light, and incubated at room temperature for 20 min. The assay was then started by dispensing MgATP (termed “initiation mix”), to a final concentration of 5 mM in each well (80 µL total assay volume) with the FlexDrop liquid dispenser (Perkin Elmer). The time dependence of absorbance was measured at 340 nm in a SpectraMax Plus384 microplate spectrophotometer (Molecular Devices, Sunnyvale, CA). For follow-up concentration response curves of Hit compounds, 400 nL of either compound or DMSO was dispensed into each well using an Echo liquid dispenser (Beckman Coulter). Testing dose-dependent compound effects on rabbit skeletal SR vesicles was done using the same method, as described above in 384-well plates. Determining compound effects on cardiac SR vesicles was done in a similar method as above, with the exception of 10 µg/mL of cardiac SR incubated in assay mix consisting of a final concentration of 50 mM MOPS (pH 7.0), 100 mM KCl, 1 mM EGTA, 1 µM of the calcium ionophore A23187, and added CaCl2 to the desired free calcium values. After a 20 min incubation, the “initiation mix”, containing a final concentration of 0.2 mM NADH, 1 mM phosphoenol pyruvate, 10 IU/mL of pyruvate kinase, 10 IU/mL of lactate dehydrogenase, and 5mM MgATP, was dispensed into each well.
While initial screening was performed in skeletal SR enriched with the SERCA1a isoform, high sequence and structural homology with the cardiac SERCA2a isoform predicts a potential for cross reactivity of the Hit compounds. To test this hypothesis, we performed ATPase analyses with cardiac SR microsomes, which are enriched for SERCA2a.

[2] = molecular target: T1, SERCA2a (cardiac SR vesicles); experiment: Oxalate-supported Ca2+-uptake assay, cardiac SR (CRC at pCa 5.4); assay type: biochemical, porcine; conditions: n = 3; for Cardiac SR Ca^2+ Uptake Activity Percent Increase: maximal effect of CRC; for Cardiac SR Ca^2+ Uptake Activity Percent Increase / EC50: pCa 5.4, mean ± SD, dash = no observable effect; for EC50: read-out: Cardiac SR Ca^2+ Uptake Activity EC50
Protocol: as §1
(§3) To determine compound effect on the Ca^2+-uptake activity of SERCA1a and SERCA2a, we used an oxalate-supported assay. A solution containing 50 mM MOPS (pH 7.0), 100 mM KCl, 30 mg/mL sucrose, 1 mM EGTA, 10 mM potassium oxalate, 2 µM Fluo-4, 30 µg/mL cardiac SR vesicles or 12 μg/mL skeletal SR vesicles, and CaCl2 calculated to reach the desired free [Ca^2+] was dispensed into 384-well black walled, transparent bottomed plates (Greiner Bio-One) containing the tested small molecule and incubated at 21 °C for 20 min while covered and protected from light. To start the reaction, MgATP was added to a final concentration of 5 mM, and the decrease in 485-nm excited fluorescence was monitored at 520 nm for 15 min using a FLIPR Tetra (Molecular Devices, San Jose, CA, USA).
To determine whether the observed increases in SERCA2a ATPase activity translate to Ca^2+ uptake function, we applied our Ca^2+ transport assay to test our selected Hit compounds in cardiac SR (Table 1). Indeed, 16 of the 19 compounds yielded a clear increase in Ca^2+ uptake activity. In fact, eight compounds generated an increase at least 50% greater in cardiac SR than in skeletal SR. Three compounds had either an inhibitory or no effect on Ca^2+ transport, and two of these were also non-activating compounds in skeletal SR.

[3] = molecular target: T2, SERCA1a (rabbit light skeletal SR vesicles) (Oryctolagus cuniculus, UniProt P04191); experiment: NADH-coupled Ca-ATPase activity assay, skeletal SR (CRC at pCa 5.4); assay type: biochemical; conditions: n = 3; for Skeletal SR ATPase Activity Percent Increase: maximal effect of CRC 0.05 to 50 µM, pCa 5.4, relative to DMSO, mean ± SD; for EC50: pCa 5.4, mean ± SD
T2 construct: rabbit muscles were freshly harvested from the back and hind leg of New Zealand White rabbits and purified using a sucrose gradient; from tissue; host or cells: rabbit (New Zealand White) back and hind leg skeletal muscle, light SR vesicles
T2 sequence (P04191 1-994 isoform P04191-2): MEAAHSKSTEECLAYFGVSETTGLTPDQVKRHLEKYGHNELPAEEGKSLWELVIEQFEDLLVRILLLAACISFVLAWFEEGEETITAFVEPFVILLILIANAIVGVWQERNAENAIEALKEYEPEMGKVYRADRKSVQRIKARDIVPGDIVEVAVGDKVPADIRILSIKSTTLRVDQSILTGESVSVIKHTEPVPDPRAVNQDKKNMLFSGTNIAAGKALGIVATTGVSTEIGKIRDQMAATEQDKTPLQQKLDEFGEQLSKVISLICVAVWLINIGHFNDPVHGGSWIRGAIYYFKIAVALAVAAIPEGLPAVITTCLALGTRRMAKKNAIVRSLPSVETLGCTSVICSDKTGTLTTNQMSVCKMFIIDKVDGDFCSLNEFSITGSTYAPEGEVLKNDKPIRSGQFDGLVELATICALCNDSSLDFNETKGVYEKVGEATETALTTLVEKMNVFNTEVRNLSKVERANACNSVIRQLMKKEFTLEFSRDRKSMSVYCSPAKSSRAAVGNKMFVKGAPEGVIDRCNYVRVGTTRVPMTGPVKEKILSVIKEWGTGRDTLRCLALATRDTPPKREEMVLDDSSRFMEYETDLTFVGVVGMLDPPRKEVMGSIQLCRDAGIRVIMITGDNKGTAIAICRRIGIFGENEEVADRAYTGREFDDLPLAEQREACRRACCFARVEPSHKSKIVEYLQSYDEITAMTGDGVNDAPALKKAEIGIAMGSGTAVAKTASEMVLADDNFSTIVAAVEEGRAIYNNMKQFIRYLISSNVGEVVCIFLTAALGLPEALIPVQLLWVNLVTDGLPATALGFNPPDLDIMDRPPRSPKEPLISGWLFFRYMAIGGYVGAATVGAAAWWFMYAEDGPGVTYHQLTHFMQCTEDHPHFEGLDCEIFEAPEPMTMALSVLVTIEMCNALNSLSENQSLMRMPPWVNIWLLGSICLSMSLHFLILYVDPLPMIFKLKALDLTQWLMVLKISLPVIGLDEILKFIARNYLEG
Protocol: as §1, §2
The initial screen assay was performed with compounds at 10 µM. To better study the selected Hit compounds for their activation potential, we performed ATPase analyses (in triplicate) over a range of Hit concentrations (0.05 to 50 µM), generating concentration-response curves (CRCs) to determine maximal effects and EC50 (Figure 2). We used the same Ca^2+ concentration (pCa 5.4) as in the screening assays, thus focusing on the effects on the maximal velocity of SERCA. Two of the selected Hits yielded no response in follow-up assays, probably due to a mismatch in chemical composition between the library compound and the subsequently ordered compound (DS95401435 and DS41547941). This type of discrepancy is a typical hurdle in the screening process. Each of the other 19 compounds produced a substantial increase in ATPase activity, ranging from 30% to 72% (Table 1 and Supporting Information, Figure S1), as expected due to similarity of the CRC assay to the initial screen.

[4] = molecular target: T3, SERCA1a (skeletal SR vesicles) (Oryctolagus cuniculus, UniProt P04191); experiment: Oxalate-supported Ca2+-uptake assay, skeletal SR (CRC at pCa 5.4); assay type: biochemical, rabbit; conditions: for Skeletal SR Ca^2+ Uptake Activity Percent Increase: maximal effect of CRC; for Skeletal SR Ca^2+ Uptake Activity Percent Increase / EC50: pCa 5.4, mean ± SD, dash = no observable effect; for EC50: read-out: Skeletal SR Ca^2+ Uptake Activity EC50
T3 construct: rabbit muscles were freshly harvested from the back and hind leg of New Zealand White rabbits and purified using a sucrose gradient; from tissue; host or cells: rabbit (New Zealand White) back and hind leg skeletal muscle, light SR vesicles
T3 sequence (P04191 1-994 isoform P04191-2): as above
Protocol: as §1, §3
While Ca^2+-dependent ATPase activity is a direct measure of SERCA activity, coupling of ATP hydrolysis to transport of Ca^2+ across the SR membrane is essential for the role of SERCA in cellular physiology. Therefore, we next asked whether our ATPase-based HTS assay could successfully identify compounds that also increase Ca^2+ uptake of SERCA.

Compound | Cardiac SR ATPase Activity Percent Increase [1] [%] | EC50 [1] [µM] | Cardiac SR Ca^2+ Uptake Activity Percent Increase [2] [%] | EC50 [2] [µM] | Skeletal SR ATPase Activity Percent Increase [3] [%] | EC50 [3] [µM] | Skeletal SR Ca^2+ Uptake Activity Percent Increase ([4]; n = 3) [%] | EC50 ([4]; n = 3) [µM] | Compound classification from ATPase vs. Ca^2+ uptake CRCs, cardiac SR [2] | Compound classification from ATPase vs. Ca^2+ uptake CRCs, skeletal SR ([4]; skeletal SR, n = 3) | Ca^2+ uptake effect (in words), SR type not given ([4]; uncoupling compounds, cluster 5, tissue not stated)
CCC(C)N(Cc1ccc(C)cc1)Cc1nccs1 (centres unmarked) [Compound 1] | 42 ± 12 | 31 ± 10 | 32 ± 2 | 37 ± 4 | 50 ± 25 | 40 ± 21 | 27 ± 3 | 28 ± 9 |  |  | 
COc1ncc(CN(Cc2sccc2C)CC(C)C)cn1 [Compound 2] | 33 ± 3 | 2.9 ± 0.6 | 12 ± 1 | 1.2 ± 0.2 | 36 ± 2 | 4 ± 0.5 | 15 ± 1 | 2.2 ± 0.4 |  |  | 
CCCSCC(=O)N(Cc1ccc(C)s1)C1CCCC1 [Compound 3] | 48 ± 4 | 6.7 ± 1 | 37 ± 3 | 3.5 ± 0.7 | 54 ± 2 | 7.3 ± 0.5 | 20 ± 1 | 3.4 ± 0.5 | Improved Coupling Compounds |  | 
CCCN(Cc1ccccc1OC)C(=O)c1cc(C)c(C)s1 [Compound 4] | 58 ± 4 | 4.8 ± 0.6 | 24 ± 1 | 1.6 ± 0.3 | 53 ± 2 | 5.4 ± 0.4 | 14 ± 2 | 1.4 ± 0.5 |  |  | 
C=CCN(Cc1ccccc1OCC)C(=O)C1CCC1 [Compound 5] | 58 ± 6 | 7.7 ± 2 | 16 ± 3 | 1 ± 0.7 | 41 ± 3 | 9 ± 1 | 10 ± 1 | 1.4 ± 0.6 |  |  | 
CCCCN(Cc1ccsc1)C(=O)c1occc1C [Compound 6] | 63 ± 17 | 29 ± 12 | 17 ± 1 | 3.8 ± 0.6 | 45 ± 8 | 24 ± 6 | 9 ± 1 | 4 ± 1 |  |  | 
CCOC(=O)C1(CCCc2ccccc2)CCN(C(=O)CC2=CCCCC2)CC1 [Compound 7] | 51 ± 3 | 2.9 ± 0.3 | 24 ± 3 | 1.3 ± 0.4 | 41 ± 3 | 3.6 ± 0.4 | 14 ± 2 | 1.4 ± 0.4 | Linked Activating Compounds |  | 
CCOC(=O)C1(Cc2cccc(C(F)(F)F)c2)CCN(C(=O)c2sccc2C)CC1 [Compound 8] | 43 ± 2 | 3.4 ± 0.3 | 18 ± 2 | 0.8 ± 0.3 | 45 ± 2 | 4 ± 0.4 | 13 ± 1 | 1.3 ± 0.4 |  | Improved Coupling Compounds | 
CCOC(=O)C1(CCc2ccccc2)CCN(C(=O)c2occc2C)CC1 [Compound 9] | 85 ± 5 | 11 ± 1 | 33 ± 3 | 4 ± 0.8 | 72 ± 2 | 13.3 ± 0.7 | 31 ± 7 | 8 ± 5 | Linked Activating Compounds |  | 
Cc1ccc(CN(C)C(=O)CC(c2ccccc2)c2ccc3c(c2)OCO3)o1 (centres unmarked) [Compound 10] | 55 ± 2 | 7.5 ± 0.4 | 16 ± 3 | 1.6 ± 0.7 | 57 ± 3 | 10 ± 1 | 11 ± 3 | 4 ± 2 |  |  | 
CCc1cccc(NC(=O)CCC(=O)NCc2snnc2C)c1 [Compound 17] | 62 ± 5 | 9.4 ± 1 |  |  | 42 ± 4 | 16 ± 3 |  |  |  |  | little to no Ca^2+ uptake effect
